Here are results for 8 compounds from publication PMC5215716, “A Target-Based Whole Cell Screen Approach To Identify Potential Inhibitors of Mycobacterium tuberculosis Signal Peptidase” (ACS Infectious Diseases, 2016).

The structures appear in SMILES notation. ≈ marks a conversion by molar mass, not a printed value. Some results are limits rather than exact numbers.

The subject of the experiment is M. tuberculosis strain expressing LepB under the hsp60 promotor (LepB-OE). As to the kind of experiment: microbe, parasite or virus in culture. The experiment is classed as cell-based. The following applies: Mycobacterium tuberculosis, average ± SD of at least two experiments.
With `C/C(=N\Nc1nc(C)cc(C)n1)c1ccccn1` [Compound 1], the MIC was determined as 18 ± 8 µM (≈ 4.34 µg/mL).

`Oc1ccccc1/C=N/Nc1nc(-c2ccccc2)cs1` [Compound 2] gave an MIC of 160 ± 57 µM (≈ 47.3 µg/mL).

`C/C(=N\NC(=O)c1ccc(N2CCCC2=O)cc1)c1ccccn1` [Compound 11] displayed an MIC of 5.6 ± 0.6 µM (≈ 1.81 µg/mL).

In the case of `Cc1cc(C)nc(NN=C(c2ccccc2)c2ccccc2)n1` [Compound 27], the MIC was 103 ± 38 µM (≈ 31.1 µg/mL).

In turn, `C/C(=N\NC(=N)c1ccccn1)c1ccccn1` [Compound 30] yielded an MIC of over 200 µM.

Consider `C/C(=N\NC(=O)C1CCCN(S(=O)(=O)c2ccccc2)C1)c1ccccn1` (centres unmarked) [Compound 38], for which the MIC came out at 9.2 ± 4 µM (≈ 3.56 µg/mL).

Take `C/C(=N\NC(=O)c1ccoc1C)c1ccccn1` [Compound 39]: the MIC was 6.5 ± 2.2 µM (≈ 1.58 µg/mL).

In the case of `C/C(=N\NC(=O)C1CC1)c1ccccn1` [Compound 40], the MIC was found to be 27 ± 2 µM (≈ 5.49 µg/mL).
